Measurements taken from paper PMC3115942 (PLoS ONE, 2011).

How the values were obtained:
PANC-1 xenograft = test: PANC-1 subcutaneous xenograft in CB17/SCID mice; assay type: in vivo, mouse
Description: Cells were lysed for RNA extraction after 48 or 72 hours of treatment. Total RNA from cultured cells or tumor tissue was isolated using the GeneElute miniprep kit (Sigma-Aldritch) following the manufacturer^'s instructions. cDNA was synthesized from the isolated mRNA using the Retroscript kit (Ambion), and real-time PCR was carried out using the SYBR Green PCR master mix (Stratagene) according to the manufacturer^'s instructions with an Mx3000P cycler (Stratagene). The relative concentrations of cDNA present in each sample were calculated by the MxPro software (Stratagene), normalized for GAPDH (mRNA from cells) or GUS (mRNA from tumors). For real time PCR primer sequences see Table 6. For the tumor tissue real time PCR, previously described human and mouse specific primers against GUSB, PTCH1 and GLI1were used.
For PANC-1 xenografts, 4–6 week old CB17/SCID mice were injected with 5×10^6 PANC-1 (n = 6 per group) cells in 200 µl PBS subcutaneously on day 1. IP treatment with 50 mg/kg MS-0022 began when median tumor size reached 25 mm^2 (day 27). MS-0022 was pulverized using a pestle, and was mixed into a stable suspension in water containing 1% Tween 80 (Sigma-Aldrich). Mice were treated with MS-0022 or solvent for a period of 30 days after initiation in a 5 day injection 2 day pause scheme, and tumor size was measured throughout using calipers (mm^2). After 30 days the mice were sacrificed and tumors dissected and weighed. The PANC-1 xenograft endpoint was taken two days after the last compound treatment.

PANC-1 cells = test: In vitro antiproliferative assay (MTS), PANC-1; assay type: cell-based, human; details: 5 µM, 4 day
Description: Cells were plated at a density of 3000 (THLE-2 and PC-3) and 1000 (PANC-1, SUIT-2 and FEMX) cells per well (on the basis of their growth rate) in 200 µl of medium in a 96-well plate. Medium was changed daily, and after four days, the assay was read using a MTS kit (Promega) according to the instructions of the manufacturer. Graphs display average of percent growth with standard deviation (n = 8).

[1] = QD, IP at 50 mg/kg, 5 day injection/2 day pause, end of treatment, vs control solvent

Cc1cccn2cc(-c3ccc(NC(=O)c4ccccc4Br)cc3)nc12 [MS-0022, 2-bromo-N-(4-(8-methylimidazo[1,2-a]pyridin-2-yl)phenyl)benzamide]
reduction in tumor volume, PANC-1 xenograft (PANC-1 xenograft; [1]): 38%
reduction in tumor weight, PANC-1 xenograft (PANC-1 xenograft; [1]): 33%
human (tumor) or mouse (stroma) Ptch1 or Gli1 mRNA levels in PANC-1 tumors (PANC-1 xenograft; endpoint of the experiment, 50 mg/kg IP): no statistically relevant difference
growth (MTS), PANC-1 (PANC-1 cells): reduced growth
